Assay results reported in the supplement of paper PMC10307832.

What was measured:
Test in all cases: relative viability (nuclei count vs DMSO), 5 days (fraction); higher = more cells survive
ChaGo-K-1 = test system: ChaGo-K-1
Summary of the method: (§1)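 Lung cancer cell lines in 1536-well plates were dosed by pin tool the day after seeding, either with one drug alone or with a fixed anchor-drug dose plus five library-drug doses (not always all listed) in √10 steps. After 5 days, cells were fixed and their nuclei stained in one step (final 0.05% Triton X-100, 1% formaldehyde, 1 ug/ml Hoechst), then counted on 4× images. Relative viability is the nuclei count in treated wells divided by that in vehicle wells. Values are medians of duplicate plates.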

NCI-H596 = test system: NCI-H596
Summary of the method: as §1

ABC-1 = test system: ABC-1
Summary of the method: as §1

NCI-H1734 = test system: NCI-H1734
Summary of the method: as §1

NCI-H1755 = test system: NCI-H1755
Summary of the method: as §1

NCI-H2009 = test system: NCI-H2009
Summary of the method: as §1

CAL-12T = test system: CAL-12T
Summary of the method: as §1

NCI-H2126 = test system: NCI-H2126
Summary of the method: as §1

NCI-H322M = test system: NCI-H322M
Summary of the method: as §1

NCI-H647 = test system: NCI-H647
Summary of the method: as §1

LXF-289 = test system: LXF-289
Summary of the method: as §1

SW 900 = test system: SW 900
Summary of the method: as §1

LK-2 = test system: LK-2
Summary of the method: as §1

PC-14 = test system: PC-14
Summary of the method: as §1

NCI-H2087 = test system: NCI-H2087
Summary of the method: as §1

NCI-H522 = test system: NCI-H522
Summary of the method: as §1

EMC-BAC-2 = test system: EMC-BAC-2
Summary of the method: as §1

NCI-H2170 = test system: NCI-H2170
Summary of the method: as §1

NCI-H3122 = test system: NCI-H3122
Summary of the method: as §1

H3255 = test system: H3255
Summary of the method: as §1

NCI-H441 = test system: NCI-H441
Summary of the method: as §1

NCI-H1651 = test system: NCI-H1651
Summary of the method: as §1

HOP-62 = test system: HOP-62
Summary of the method: as §1

201T = test system: 201T
Summary of the method: as §1

NCI-H1563 = test system: NCI-H1563
Summary of the method: as §1

CCCCCCCCCCCC1=C(O)C(=O)C=C(O)C1=O [Embelin] + COc1cccc2cc(-c3nc([C@H]4CC[C@H](C(=O)O)CC4)n4ncnc(N)c34)[nH]c12 [OSI-027] (partner 0.5 µM)
relative viability (ChaGo-K-1; first compound 0.08 µM): 0.572
relative viability (ChaGo-K-1; first compound 0.8 µM): 0.636
relative viability (ChaGo-K-1; first compound 2.53 µM): 0.699
relative viability (ChaGo-K-1; first compound 8 µM): 0.556
relative viability (NCI-H596; first compound 0.08 µM): 0.773
relative viability (NCI-H596; first compound 0.8 µM): 0.854
relative viability (NCI-H596; first compound 2.53 µM): 0.771
relative viability (NCI-H596; first compound 8 µM): 0.454
relative viability (ABC-1; first compound 0.08 µM): 0.58
relative viability (ABC-1; first compound 0.8 µM): 0.646
relative viability (ABC-1; first compound 2.53 µM): 0.472
relative viability (ABC-1; first compound 8 µM): 0.552
relative viability (NCI-H1734; first compound 0.08 µM): 0.648
relative viability (NCI-H1734; first compound 0.8 µM): 0.771
relative viability (NCI-H1734; first compound 2.53 µM): 0.618
relative viability (NCI-H1734; first compound 8 µM): 0.608
relative viability (NCI-H1755; first compound 0.08 µM): 0.829
relative viability (NCI-H1755; first compound 0.8 µM): 0.709
relative viability (NCI-H1755; first compound 2.53 µM): 0.634
relative viability (NCI-H1755; first compound 8 µM): 0.691
relative viability (NCI-H2009; first compound 0.08 µM): 0.728
relative viability (NCI-H2009; first compound 0.8 µM): 0.736
relative viability (NCI-H2009; first compound 2.53 µM): 0.492
relative viability (NCI-H2009; first compound 8 µM): 0.594
relative viability (CAL-12T; first compound 0.08 µM): 0.538
relative viability (CAL-12T; first compound 0.8 µM): 0.817
relative viability (CAL-12T; first compound 2.53 µM): 0.513
relative viability (CAL-12T; first compound 8 µM): 0.665
relative viability (NCI-H2126; first compound 0.08 µM): 0.666
relative viability (NCI-H2126; first compound 0.8 µM): 0.746
relative viability (NCI-H2126; first compound 2.53 µM): 0.804
relative viability (NCI-H2126; first compound 8 µM): 0.795
relative viability (NCI-H322M; first compound 0.08 µM): 0.523
relative viability (NCI-H322M; first compound 0.8 µM): 0.744
relative viability (NCI-H322M; first compound 2.53 µM): 0.645
relative viability (NCI-H322M; first compound 8 µM): 0.512
relative viability (NCI-H647; first compound 0.08 µM): 0.684
relative viability (NCI-H647; first compound 0.8 µM): 0.72
relative viability (NCI-H647; first compound 2.53 µM): 0.963
relative viability (NCI-H647; first compound 8 µM): 0.649
relative viability (LXF-289; first compound 0.08 µM): 0.796
relative viability (LXF-289; first compound 0.8 µM): 0.952
relative viability (LXF-289; first compound 2.53 µM): 0.801
relative viability (LXF-289; first compound 8 µM): 0.873
relative viability (SW 900; first compound 0.08 µM): 0.496
relative viability (SW 900; first compound 0.8 µM): 0.541
relative viability (SW 900; first compound 2.53 µM): 0.553
relative viability (SW 900; first compound 8 µM): 0.347
relative viability (LK-2; first compound 0.08 µM): 0.246
relative viability (LK-2; first compound 0.8 µM): 0.226
relative viability (LK-2; first compound 2.53 µM): 0.22
relative viability (LK-2; first compound 8 µM): 0.194
relative viability (PC-14; first compound 0.08 µM): 0.81
relative viability (PC-14; first compound 0.8 µM): 1.13
relative viability (PC-14; first compound 2.53 µM): 1.24
relative viability (PC-14; first compound 8 µM): 0.848
relative viability (NCI-H2087; first compound 0.08 µM): 0.5
relative viability (NCI-H2087; first compound 0.8 µM): 0.543
relative viability (NCI-H2087; first compound 2.53 µM): 0.656
relative viability (NCI-H2087; first compound 8 µM): 0.628
relative viability (NCI-H522; first compound 0.08 µM): 0.677
relative viability (NCI-H522; first compound 0.8 µM): 0.714
relative viability (NCI-H522; first compound 2.53 µM): 0.752
relative viability (NCI-H522; first compound 8 µM): 0.641
relative viability (EMC-BAC-2; first compound 0.08 µM): 0.375
relative viability (EMC-BAC-2; first compound 0.8 µM): 0.47
relative viability (EMC-BAC-2; first compound 2.53 µM): 0.349
relative viability (EMC-BAC-2; first compound 8 µM): 0.353
relative viability (NCI-H2170; first compound 0.08 µM): 0.796
relative viability (NCI-H2170; first compound 0.8 µM): 0.733
relative viability (NCI-H2170; first compound 2.53 µM): 0.753
relative viability (NCI-H2170; first compound 8 µM): 0.737
relative viability (NCI-H3122; first compound 0.08 µM): 0.857
relative viability (NCI-H3122; first compound 0.8 µM): 1.15
relative viability (NCI-H3122; first compound 2.53 µM): 1.31
relative viability (NCI-H3122; first compound 8 µM): 0.875
relative viability (H3255; first compound 0.08 µM): 0.586
relative viability (H3255; first compound 0.8 µM): 0.628
relative viability (H3255; first compound 2.53 µM): 0.63
relative viability (H3255; first compound 8 µM): 0.587
relative viability (NCI-H441; first compound 0.08 µM): 0.688
relative viability (NCI-H441; first compound 0.8 µM): 0.742
relative viability (NCI-H441; first compound 2.53 µM): 0.673
relative viability (NCI-H441; first compound 8 µM): 0.647
relative viability (NCI-H1651; first compound 0.08 µM): 0.749
relative viability (NCI-H1651; first compound 0.8 µM): 0.677
relative viability (NCI-H1651; first compound 2.53 µM): 0.801
relative viability (NCI-H1651; first compound 8 µM): 0.776
relative viability (HOP-62; first compound 0.08 µM): 0.88
relative viability (HOP-62; first compound 0.8 µM): 0.922
relative viability (HOP-62; first compound 2.53 µM): 0.931
relative viability (HOP-62; first compound 8 µM): 0.812
relative viability (201T; first compound 0.08 µM): 0.72
relative viability (201T; first compound 0.8 µM): 0.883
relative viability (201T; first compound 2.53 µM): 0.746
relative viability (201T; first compound 8 µM): 0.83
relative viability (NCI-H1563; first compound 0.08 µM): 0.65
relative viability (NCI-H1563; first compound 0.8 µM): 0.772
relative viability (NCI-H1563; first compound 2.53 µM): 0.71
relative viability (NCI-H1563; first compound 8 µM): 0.758
